We go through 11 compounds from US7504399B2, “Piperazine enamines as antiviral agents” (priority 2006, dated 2009).

A word on the EC50: it is the concentration that produces a half-maximal response.

Molecules are shown by their SMILES.

This assay deals with HIV-1 single-round infectious reporter virus. Description: Single-round infectious HIV-1 luciferase reporter virus infection assay in HeLa CD4 cells. The following applies: Human immunodeficiency virus 1, HeLa, 72 h, read-out: EC50 Group from Table 1. It counts as cell-based. The procedure:
• Virus production-Human embryonic Kidney cell line, 293T, was propagated in Dulbecco's Modified Eagle Medium (Invitrogen, Carlsbad, Calif.) containing 10% fetal Bovine serum (FBS, Sigma, St. Louis, Mo.). • Virus infection—Human epithelial cell line, HeLa, expressing the HIV-1 receptor CD4 was propagated in Dulbecco's Modified Eagle Medium (Invitrogen, Carlsbad, Calif.) containing 10% fetal Bovine serum (FBS, Sigma, St. Louis, Mo.) and supplemented with 0.2 mg/mL Geneticin (Invitrogen, Carlsbad, Calif.). Virus-Single-round infectious reporter virus was produced by co-transfecting human embryonic Kidney 293 cells with an HIV-1 envelope DNA expression vector and a proviral cDNA containing an envelope deletion mutation and the luciferase reporter gene inserted in place of HIV-1 nef sequences (Chen et al., Ref. 41). Transfections were performed using lipofectAMINE PLUS reagent as described by the manufacturer (Invitrogen, Carlsbad, Calif.). Experiment • 1. HeLa CD4 cells were plated in 96 well plates at a cell density of 1×10^4 cells per well in 100 μl Dulbecco's Modified Eagle Medium containing 10% fetal Bovine serum and incubated overnight. • 2. Compound was added in a 2 μl dimethylsulfoxide solution, so that the final assay concentration would be ≦10 μM. • 3. 100 μl of single-round infectious reporter virus in Dulbecco's Modified Eagle Medium was then added to the plated cells and compound at an approximate multiplicity of infection (MOI) of 0.01, resulting in a final volume of 200 μl per well. • 4. Virally-infected cells were incubated at 37 degrees Celsius, in a CO2 incubator, and harvested 72 h after infection. • 5. Viral infection was monitored by measuring luciferase expression from viral DNA in the infected cells using a luciferase reporter gene assay kit, as described by the manufacturer (Roche Molecular Biochemicals, Indianapolis, Ind.). Infected cell supernatants were removed and 50 μl of lysis buffer was added per well. After 15 minutes, 50 μl of freshly-reconstituted luciferase assay reagent was added per well. Luciferase activity was then quantified by measuring luminescence using a Wallac microbeta scintillation counter. • 6. The percent inhibition for each compound was calculated by quantifying the level of luciferase expression in cells infected in the presence of each compound as a percentage of that observed for cells infected in the absence of compound and subtracting such a determined value from 100. • 7. An EC50 provides a method for comparing the antiviral potency of the compounds of this disclosure. The effective concentration for fifty percent inhibition (EC50) was calculated with the Microsoft Excel Xlfit curve fitting software. For each compound, curves were generated from percent inhibition calculated at 10 different concentrations by using a four paramenter logistic model (model 205). Table 1 is the key for the data in Table 2. Results
On the technique in general: A reporter such as luciferase makes a cellular process visible.
Turning to `N#C/C=C(\c1ccccc1)N1CCN(C(=O)C(=O)c2c[nH]c3ccccc23)CC1` [EN-01], the EC50 is under 1000 nM.

On to `N#CC(C#N)=C(c1ccccc1)N1CCN(C(=O)C(=O)c2c[nH]c3ccccc23)CC1` [EN-02, 2-((4-(2-(1H-indol-3-yl)-2-oxoacetyl)piperazin-1-yl)(phenyl)methylene)malononitrile], for which the EC50 was under 1000 nM.

`N#C/C=C(\c1ccccc1)N1CCN(C(=O)C(=O)c2c[nH]c3c(Br)ccc(F)c23)CC1` [EN-03]: the concentration giving a half-maximal response (EC50) was under 1000 nM. In the case of `COc1cnc(-n2cnc(C)n2)c2[nH]cc(C(=O)C(=O)N3CCN(/C(=C/C#N)c4ccccc4)CC3)c12` [EN-05], the EC50 was under 1000 nM.

Take `COc1cnc(-n2ccnn2)c2[nH]cc(C(=O)C(=O)N3CCN(/C(=C/C#N)c4ccccc4)CC3)c12` [EN-06]: the EC50 was under 1000 nM.

Consider `COc1cnc(-n2ccnn2)c2[nH]cc(C(=O)C(=O)N3CCN(C(=C(C#N)C#N)c4ccccc4)CC3)c12` [EN-07], for which the EC50 is under 1000 nM. To `N#CC(C#N)=C(c1ccccc1)N1CCN(C(=O)C(=O)c2c[nH]c3c(-n4ccnn4)ncc(F)c23)CC1` [EN-08, 2-((4-(2-(4-fluoro-7-(1H-1,2,3-triazol-1-yl)-1H-pyrrolo[2,3-c]pyridin-3-yl)-2-oxoacetyl)piperazin-1-yl)(phenyl)methylene)malononitrile] belongs under 1000 nM; to `O=C(O)/C=C(\c1ccccc1)N1CCN(C(=O)C(=O)c2c[nH]c3cccc(F)c23)CC1` [EN-09], under 1000 nM.

As for `COc1cnc(Cl)c2[nH]cc(C(=O)C(=O)N3CCN(C(=C(C#N)C#N)c4ccccc4)CC3)c12` [EN-10], the EC50 is under 1000 nM. For the compound `N#CC(C#N)=C(c1ccccc1)N1CCN(C(=O)C(=O)c2c[nH]c3cccc(F)c23)CC1` [EN-11, 2-((4-(2-(4-fluoro-1H-indol-3-yl)-2-oxoacetyl)piperazin-1-yl)(phenyl)methylene)malononitrile], the EC50 was under 1000 nM. In the case of `COc1cnc(Cl)c2[nH]cc(C(=O)C(=O)N3CCN(/C(=C/C#N)c4ccccc4)CC3)c12` [EN-13], the EC50 was under 1000 nM.
